The target of this test is Human Factor D (Homo sapiens (Human), UniProt P00746). Description: Human Factor D Assay. As to conditions: Table 6; Factor D 80 nM, substrate Z-L-Lys-SBz; read-out: IC50. Type of test: biochemical. The essentials: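 Thioester substrate Z-L-Lys-SBz (100 μM) with Ellman's reagent DTNB (100 μM) reports activity of 80 nM human serum-derived enzyme, kinetically at 405 nm over 30 min. Compound preincubated 5 min, room temperature, pH 7.5 Tris/1 M NaCl; IC50 by nonlinear fit of rates.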

The record followed here is US11084800B2 (Achillion Pharmaceuticals, Inc., priority 2017, dated 2021).

Some results are limits rather than exact numbers.

For orientation: IC50 means the point on the concentration scale where inhibition reaches its midpoint.

Sequence of Human Factor D (P00746 26-253): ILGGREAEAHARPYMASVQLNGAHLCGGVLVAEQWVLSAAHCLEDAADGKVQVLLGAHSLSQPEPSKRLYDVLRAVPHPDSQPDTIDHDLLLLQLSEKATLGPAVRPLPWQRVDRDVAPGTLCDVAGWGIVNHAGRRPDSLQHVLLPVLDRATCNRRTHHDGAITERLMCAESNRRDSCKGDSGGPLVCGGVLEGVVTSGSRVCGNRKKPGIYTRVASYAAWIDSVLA

Turning to `CC(=O)c1nn(CC(=O)N2C[C@H]3C[C@H]3[C@H]2C(=O)Nc2nc(Br)ccc2C)c2cnc(-c3cnc(C)nc3)cc12` [Compound 141, (1R,2S,5S)-3-(2-(3-Acetyl-5-(2-methylpyrimidin-5-yl)-1H-pyrazolo[3,4-c]pyridin-1-yl)acetyl)-N-(6-bromo-3-methylpyridin-2-yl)-3-azabicyclo[3.1.0]hexane-2-carboxamide], the IC50 was under 1000 nM. Take `CC(=O)c1nn(CC(=O)N2[C@H](C(=O)Nc3nc(Br)ccc3C)C[C@@]3(CN4CC5(CCCC5)C4)C[C@@H]23)c2ccc(-c3cnc(C)nc3)cc12` [Compound 142, (1R,3S,5R)-5-(2-Azaspiro[3.4]octan-2-ylmethyl)-2-(2-(3-acetyl-5-(2-methylpyrimidin-5-yl)-1H-indazol-1-yl)acetyl)-N-(6-bromo-3-methylpyridin-2-yl)-2-azabicyclo[3.1.0]hexane-3-carboxamide]: the IC50 was under 1000 nM.

For the compound `CC(=O)c1nn(CC(=O)N2[C@H](C(=O)Nc3nc(Br)ccc3C)C[C@@]3(CN(C)C)C[C@@H]23)c2c(C#N)cc(-c3cnc(C)nc3)cc12` [Compound 143, (1R,3S,5R)-2-(2-(3-Acetyl-7-cyano-5-(2-methylpyrimidin-5-yl)-1H-indazol-1-yl)acetyl)-N-(6-bromo-3-methylpyridin-2-yl)-5-((dimethylamino)methyl)-2-azabicyclo[3.1.0]hexane-3-carboxamide], the IC50 was under 1000 nM.

For the compound `CC(=O)c1nn(CC(=O)N2[C@H]3C[C@@]3(CN(C)C)C[C@H]2C(=O)Nc2nc(Br)ccc2C)c2c(C#N)cc(-c3cnc(C)nc3)cc12` [Compound 144, (1S,3S)-2-(2-(3-acetyl-7-cyano-5-(2-methylpyrimidin-5-yl)-1H-indazol-1-yl)acetyl)-N-(6-bromo-3-methylpyridin-2-yl)-5-((dimethylamino)methyl)-2-azabicyclo[3.1.0]hexane-3-carboxamide], the IC50 lay in the range of 1000 to 10000 nM. As to `Cc1ncc(-c2ccc3c(c(C(N)=O)nn3CC(=O)N3[C@H](C(=O)Nc4nc(Br)ccc4C)C[C@@]4(C)C[C@@H]34)c2F)cn1` [Compound 145, 1-(2-((1R,3S,5R)-3-((6-Bromo-3-methylpyridin-2-yl)carbamoyl)-5-methyl-2-azabicyclo[3.1.0]hexan-2-yl)-2-oxoethyl)-4-fluoro-5-(2-methylpyrimidin-5-yl)-1H-indazole-3-carboxamide], the IC50 is under 1000 nM. On to `CC(=O)c1nn(CC(=O)N2[C@H](C(=O)Nc3nc(Br)ccc3C)C[C@@]3(C)C[C@@H]23)c2c(C(F)F)cc(-c3cnc(C)nc3)cc12` [Compound 146, (1R,3S,5R)-2-(2-(3-Acetyl-7-(difluoromethyl)-5-(2-methylpyrimidin-5-yl)-1H-indazol-1-yl)acetyl)-N-(6-bromo-3-methylpyridin-2-yl)-5-methyl-2-azabicyclo[3.1.0]hexane-3-carboxamide], for which the IC50 was under 1000 nM. `CC(=O)c1nn(CC(=O)N2[C@H](C(=O)Nc3nc(Br)ccc3C)C[C@@]3(C)C[C@@H]23)c2c(F)cc(-c3cnc(C)nc3)cc12` [Compound 147, (1R,3S,5R)-2-(2-(3-Acetyl-7-fluoro-5-(2-methylpyrimidin-5-yl)-1H-indazol-1-yl)acetyl)-N-(6-bromo-3-methylpyridin-2-yl)-5-methyl-2-azabicyclo[3.1.0]hexane-3-carboxamide]: the IC50 was under 1000 nM. As to `CC(=O)c1nn(CC(=O)N2[C@H](C(=O)Nc3nc(Br)ccc3C)C[C@@]3(C)C[C@@H]23)c2ccc(-c3cnc(CC(=O)N(C)C)nc3)cc12` [Compound 148, (1R,3S,5R)-2-(2-(3-Acetyl-5-(2-(2-(dimethylamino)-2-oxoethyl)pyrimidin-5-yl)-1H-indazol-1-yl)acetyl)-N-(6-bromo-3-methylpyridin-2-yl)-5-methyl-2-azabicyclo[3.1.0]hexane-3-carboxamide], the IC50 was under 1000 nM. Regarding `CC(=O)c1nn(CC(=O)N2[C@H](C(=O)Nc3nc(Br)ccc3C)C[C@@]3(CN4CCC4)C[C@@H]23)c2c(C)cc(-c3cnc(C)nc3)cc12` [Compound 149, (1R,3S,5R)-2-(2-(3-Acetyl-7-methyl-5-(2-methylpyrimidin-5-yl)-1H-indazol-1-yl)acetyl)-5-(azetidin-1-ylmethyl)-N-(6-bromo-3-methylpyridin-2-yl)-2-azabicyclo[3.1.0]hexane-3-carboxamide], the IC50 was under 1000 nM. For `CC(=O)c1nn(CC(=O)N2[C@H](C(=O)Nc3nc(Br)ccc3C)C[C@@]3(CN4CC(F)(F)C4)C[C@@H]23)c2c(C)cc(-c3cnc(C)nc3)cc12` [Compound 150, (1R,3S,5R)-2-(2-(3-Acetyl-7-methyl-5-(2-methylpyrimidin-5-yl)-1H-indazol-1-yl)acetyl)-N-(6-bromo-3-methylpyridin-2-yl)-5-((3,3-difluoroazetidin-1-yl)methyl)-2-azabicyclo[3.1.0]hexane-3-carboxamide], the IC50 was under 1000 nM. For `CC(=O)c1nn(CC(=O)N2[C@H](C(=O)Nc3nc(Br)ccc3C)C[C@@]3(CNC4CC4)C[C@@H]23)c2ccc(-c3cnc(C)nc3)cc12` [Compound 151, (1R,3S,5R)-2-(2-(3-Acetyl-5-(2-methylpyrimidin-5-yl)-1H-indazol-1-yl)acetyl)-N-(6-bromo-3-methylpyridin-2-yl)-5-((cyclopropylamino)methyl)-2-azabicyclo[3.1.0]hexane-3-carboxamide], the IC50 is under 1000 nM. For `COCc1ccc(Br)nc1NC(=O)[C@@H]1C[C@@]2(COC)C[C@H]2N1C(=O)Cn1nc(C(C)=O)c2cc(-c3cnc(C)nc3)ccc21` [Compound 152, (1R,3S,5S)-2-(2-(3-Acetyl-5-(2-methylpyrimidin-5-yl)-1H-indazol-1-yl)acetyl)-N-(6-bromo-3-(methoxymethyl)pyridin-2-yl)-5-(methoxymethyl)-2-azabicyclo[3.1.0]hexane-3-carboxamide], the half-inhibitory concentration (IC50) was under 1000 nM. `COCc1ccc(Br)nc1NC(=O)[C@@H]1C[C@@]2(CNC(=O)[C@@H](NC(=O)OC)C(C)C)C[C@H]2N1C(=O)Cn1nc(C(C)=O)c2cc(-c3cnc(C)nc3)ccc21` [Compound 153, Methyl ((S)-1-((((1R,3S,5R)-2-(2-(3-acetyl-5-(2-methylpyrimidin-5-yl)-1H-indazol-1-yl)acetyl)-3-((6-bromo-3-(methoxymethyl)pyridin-2-yl)carbamoyl)-2-azabicyclo[3.1.0]hexan-5-yl)methyl)amino)-3-methyl-1-oxobutan-2-yl)carbamate]: the IC50 is under 1000 nM. For the compound `C=CCOC[C@@]12C[C@@H](C(=O)Nc3nc(Br)ccc3C)N(C(=O)Cn3nc(C(C)=O)c4cc(-c5cnc(C)nc5)cc(CC=C)c43)[C@@H]1C2` [Compound 154, (1R,3S,5S)-2-(2-(3-acetyl-7-allyl-5-(2-methylpyrimidin-5-yl)-1H-indazol-1-yl)acetyl)-5-((allyloxy)methyl)-N-(6-bromo-3-methylpyridin-2-yl)-2-azabicyclo[3.1.0]hexane-3-carboxamide], the 50% inhibitory concentration (IC50) is under 1000 nM. For `CC(=O)c1nn(CC(=O)N2[C@H](C(=O)Nc3nc(Br)ccc3C)C[C@@]3(CN(C)C)C[C@@H]23)c2ccc(-c3cnc(C)nc3)c(F)c12` [Compound 155, (1R,3S,5R)-2-(2-(3-Acetyl-4-fluoro-5-(2-methylpyrimidin-5-yl)-1H-indazol-1-yl)acetyl)-N-(6-bromo-3-methylpyridin-2-yl)-5-((dimethylamino)methyl)-2-azabicyclo[3.1.0]hexane-3-carboxamide], the IC50 is under 1000 nM.
